How the values were obtained:
[1] = design: species or system Cynomolgus monkeys; settings: cynomolgus monkey, in vivo
Procedure: Phosphonoformic acid, also denoted PFA and phosphonoacetic acid, also denoted PAA were used in the form of their trisodium and disodium salt, respectively. The following equimolar compositions of the two test compounds were used: […]
Two adult male Cynomolgus monkeys were treated once daily for 7 days with PFA or PAA in Arlatone cream. Treatment was done both by topical application of 0.2 ml cream on an area of 3×7 cm on the upper part of the arms and by application of 0.2 ml of cream on the penis and the adjacent skin. During application of cream, the animals were lightly anaesthetized with Ketalar®, given intramuscularly. All applications were 0.2 ml each on day 6/3, 7/3, 8/3, 9/3, 10/3, 11/3 and 12/3 1978.

[2] = test system: reverse transcriptase from AMV; test: Cell-free reverse transcriptase inhibition, AMV; format: biochemical, avian myeloblastosis virus
Procedure: (§1) Reverse transcriptase from various retroviruses have been tested in cell-free assays for inhibition by phosphonoformic acid and phosphonoacetic acid. The assay conditions have been described by Collaborative Research, Inc, 1365 Main Street, Waltham, Mass., USA "Assay kit for mammalian viral reverse transcriptase". BLV and VV were prepared in this laboratory and all other viruses and viral enzyme were obtained from Dr. K Nilsson, Department of Pathology, University of Uppsala and from Boehringer Mannheim, Germany. Phosphonoformic acid (PFA) and phosphonoacetic acid (PAA) were added at pH 7.2 to the reaction mixtures at the start of the reaction.
(§2) Rauscher murine leukemia virus; RMuLV, visna virus; VV, avian myeloblastosis virus; AMV, bovine leukemia virus; BLV, baboon endogenous virus; BaEV, simian sarcoma virus; SSV.

[3] = molecular target: T1, reverse transcriptase from VV (Maedi visna virus, UniProt P03370); test: Cell-free reverse transcriptase inhibition, VV; format: biochemical; settings: template/primer (rA)n.(dT)10, read-out: Percent inhibition
T1 construct: Reverse transcriptase from various retroviruses have been tested in cell-free assays; made in house
Procedure: as §1, §2

[4] = molecular target: T2, reverse transcriptase from BLV (Bovine leukemia virus, UniProt P03361); test: Cell-free reverse transcriptase inhibition, BLV; format: biochemical; settings: template/primer (rA)n.(dT)10, read-out: Percent inhibition
T2 construct: Reverse transcriptase from various retroviruses have been tested in cell-free assays; made in house
Procedure: as §1, §2

[5] = molecular target: T3, reverse transcriptase from SSV (Woolly monkey sarcoma virus, UniProt P03359); test: Cell-free reverse transcriptase inhibition, SSV; format: biochemical, simian sarcoma virus; settings: template/primer (rA)n.(dT)10, read-out: Percent inhibition
T3 construct: Reverse transcriptase from various retroviruses have been tested in cell-free assays
Procedure: as §1, §2

[6] = molecular target: T4, reverse transcriptase from BaEV (Baboon endogenous virus, UniProt P10272); test: Cell-free reverse transcriptase inhibition, BaEV; format: biochemical; settings: template/primer (rA)n.(dT)10, read-out: Percent inhibition
T4 construct: Reverse transcriptase from various retroviruses have been tested in cell-free assays
Procedure: as §1, §2

visna virus = test: Visna virus growth in sheep choroid plexus (SCP) cells: virus titre and morphological changes; format: cell-based; settings: 500 μM
Procedure: Visna virus is a retrovirus that can multiply in sheep choroid (SCP) cells. The infection can be followed by titrating medium from infected cells to determine the formation of virus particles and by observing morphological changes as syncytial formation and cell degeneration.
Plates (5 cm) with primary SCP cells in medium 199 with 10% sheep serum were grown to confluence and then infected with 1×10^6 TCID50 (tissue culture infectious doses) of visna virus. One set of plates were left untreated, one set received different concentrations of phosphonoformic acid (PFA) at pH 7.2. Another set received phosphonoacetic acid (PAA) at pH 7.2. Uninfected plates were used as controls with and without PFA and PAA. The virus titre was determined 5 days after infection by the end-point titration method. The plates were checked daily in a light microscope to observe morphological changes.

[7] = guinea pig, in vivo
Procedure: Phosphonoformic acid and phosphonoacetic acid were used as their trisodium and disodium salts, respectively. The test substances were used in 1% solutions.
Guinea-pigs of the Dunkin-Hartley strain of both sexes and weighing 200-300 g were used. The back of the animal was shaved and depilated with Opilca® on the day before starting the application of the solutions. The back was divided into six squares in the middle of which 30 μl of the test solutions was applied. In a given group of animals the different solutions were applied in a randomized order alternating between sites. However, the same site was used for repeated application of a given solution.
The irritation was scored on scales of 0 to 3, each grade corresponding to the following specific criteria of irritation:
1=slight erythema or edema or no hair growth
2=moderate erythema or edema or skin discoloration
3=marked erythema or edema or necrosis including crust formation.
The scoring was carried out blindly using coded solutions.
The scores of all the applications for a given solution and time were added and the average score was calculated.
The solvent used was a mixture of glycerol 10.0% (w/v), Tween 80 0.1% and aq sterile ad 100. All solutions were adjusted to pH 6.5 with hydrochloric acid or aqueous sodium hydroxide as required. Thirty μl of 1.0% solutions of phosphonoformic acid and phosphonoacetic acid respectively was applied twice daily during three days to each of six guinea pigs.

[8] = test system: reverse transcriptase from RMuLV; test: Cell-free reverse transcriptase inhibition, RMuLV; format: biochemical, Rauscher murine leukemia virus; settings: template/primer (rA)n.(dT)10
Procedure: as §1, §2

T4 sequence (P10272 659-1335): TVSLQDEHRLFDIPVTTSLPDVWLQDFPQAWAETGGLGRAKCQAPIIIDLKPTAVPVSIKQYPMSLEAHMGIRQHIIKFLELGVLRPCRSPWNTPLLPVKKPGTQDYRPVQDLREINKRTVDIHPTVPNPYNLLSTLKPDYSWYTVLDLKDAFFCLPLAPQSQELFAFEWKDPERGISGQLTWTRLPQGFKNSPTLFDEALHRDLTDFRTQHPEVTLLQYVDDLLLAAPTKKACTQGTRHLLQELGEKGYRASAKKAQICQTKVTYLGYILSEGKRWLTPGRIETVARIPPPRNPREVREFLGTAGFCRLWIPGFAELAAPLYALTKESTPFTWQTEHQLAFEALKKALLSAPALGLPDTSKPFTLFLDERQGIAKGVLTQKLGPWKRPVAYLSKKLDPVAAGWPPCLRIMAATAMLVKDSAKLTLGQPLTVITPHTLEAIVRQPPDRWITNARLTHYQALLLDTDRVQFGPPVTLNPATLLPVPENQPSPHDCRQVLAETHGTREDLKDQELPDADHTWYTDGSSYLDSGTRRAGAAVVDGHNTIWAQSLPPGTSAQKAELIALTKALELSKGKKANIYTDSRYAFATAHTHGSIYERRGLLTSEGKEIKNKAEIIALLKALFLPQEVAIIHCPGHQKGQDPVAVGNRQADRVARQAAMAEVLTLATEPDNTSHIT
T3 sequence (P03359 642-1310): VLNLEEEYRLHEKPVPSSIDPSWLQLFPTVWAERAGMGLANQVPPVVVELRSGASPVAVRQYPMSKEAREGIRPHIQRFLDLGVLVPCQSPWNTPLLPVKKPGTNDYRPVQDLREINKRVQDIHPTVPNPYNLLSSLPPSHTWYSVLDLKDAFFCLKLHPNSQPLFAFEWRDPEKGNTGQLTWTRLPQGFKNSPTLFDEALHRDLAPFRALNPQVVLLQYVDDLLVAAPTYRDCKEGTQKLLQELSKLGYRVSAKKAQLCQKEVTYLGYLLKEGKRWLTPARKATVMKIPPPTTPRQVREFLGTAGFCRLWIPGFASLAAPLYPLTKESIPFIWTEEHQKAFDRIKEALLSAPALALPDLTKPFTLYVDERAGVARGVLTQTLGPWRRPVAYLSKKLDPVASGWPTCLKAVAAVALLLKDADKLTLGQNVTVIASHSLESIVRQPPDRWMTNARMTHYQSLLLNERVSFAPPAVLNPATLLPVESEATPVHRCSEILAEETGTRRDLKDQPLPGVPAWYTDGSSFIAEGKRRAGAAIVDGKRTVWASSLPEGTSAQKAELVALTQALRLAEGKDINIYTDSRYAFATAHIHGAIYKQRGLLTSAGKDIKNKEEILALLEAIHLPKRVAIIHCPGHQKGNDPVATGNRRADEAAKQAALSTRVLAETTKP
T2 sequence (P03361 546-1120): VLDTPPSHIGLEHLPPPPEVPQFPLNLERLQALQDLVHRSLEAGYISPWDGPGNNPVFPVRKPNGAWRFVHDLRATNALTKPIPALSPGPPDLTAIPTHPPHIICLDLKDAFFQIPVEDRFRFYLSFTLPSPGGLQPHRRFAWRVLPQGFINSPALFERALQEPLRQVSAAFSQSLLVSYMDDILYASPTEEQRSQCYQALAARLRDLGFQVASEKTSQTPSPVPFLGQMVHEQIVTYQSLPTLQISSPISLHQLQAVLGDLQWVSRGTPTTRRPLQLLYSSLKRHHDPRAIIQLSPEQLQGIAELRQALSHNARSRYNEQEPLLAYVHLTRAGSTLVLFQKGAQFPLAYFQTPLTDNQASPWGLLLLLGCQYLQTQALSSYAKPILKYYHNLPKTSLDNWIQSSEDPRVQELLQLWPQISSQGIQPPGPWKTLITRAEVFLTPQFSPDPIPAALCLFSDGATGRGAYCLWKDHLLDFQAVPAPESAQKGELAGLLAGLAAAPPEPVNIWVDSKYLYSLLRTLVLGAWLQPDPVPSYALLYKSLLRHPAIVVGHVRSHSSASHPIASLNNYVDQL
T1 sequence (P03370 541-1111): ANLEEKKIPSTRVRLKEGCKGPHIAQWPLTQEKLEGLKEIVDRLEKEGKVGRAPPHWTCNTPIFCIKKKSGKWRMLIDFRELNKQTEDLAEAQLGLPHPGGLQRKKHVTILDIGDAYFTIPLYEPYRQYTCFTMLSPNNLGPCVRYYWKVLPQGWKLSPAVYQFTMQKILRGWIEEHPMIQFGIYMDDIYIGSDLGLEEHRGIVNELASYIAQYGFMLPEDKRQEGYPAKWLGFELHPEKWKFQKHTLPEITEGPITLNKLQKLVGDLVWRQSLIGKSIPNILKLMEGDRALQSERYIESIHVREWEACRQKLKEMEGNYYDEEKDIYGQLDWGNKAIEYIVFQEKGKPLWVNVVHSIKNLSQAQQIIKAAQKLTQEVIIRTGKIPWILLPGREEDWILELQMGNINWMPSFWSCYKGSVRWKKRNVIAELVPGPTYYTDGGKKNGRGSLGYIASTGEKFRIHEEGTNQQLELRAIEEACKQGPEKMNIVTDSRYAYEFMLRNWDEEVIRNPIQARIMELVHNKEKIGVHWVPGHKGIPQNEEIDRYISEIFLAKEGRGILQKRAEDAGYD

O=C(O)CP(=O)(O)O [phosphonoacetic acid, reference compound]
Result (skin irritation), area of application penis [1]: Glans penis and adjacent skin areas irritated 9/3-12/3 Adjacent skin areas also showed symptoms 23/3
Percent inhibition ([2]; 10 μM, endogenous template): 0%
Percent inhibition ([2]; 10 μM, purified enzyme, (rA)n.(dT)10): 0%
Percent inhibition ([2]; 10 μM, template/primer (rA)n.(dT)10): 0%
Percent inhibition ([2]; 100 μM, endogenous template): -2%
Percent inhibition ([2]; 100 μM, purified enzyme, (rA)n.(dT)10): 0%
Percent inhibition ([2]; 100 μM, template/primer (rA)n.(dT)10): -34%
Percent inhibition ([2]; 500 μM, endogenous template): -3%
Percent inhibition ([2]; 500 μM, purified enzyme, (rA)n.(dT)10): 19%
Percent inhibition ([2]; 500 μM, template/primer (rA)n.(dT)10): -86%
inhibition at 100 µM ([3]; 100 μM): 25%
inhibition at 500 µM ([3]; 500 μM): 3%
inhibition at 100 µM ([4]; 100 μM): 0%
inhibition at 500 µM ([4]; 500 μM): 10%
inhibition at 10 µM ([5]; 10 μM): 0%
inhibition at 100 µM ([5]; 100 μM): 44%
inhibition at 500 µM ([5]; 500 μM): 58%
inhibition at 10 µM ([6]; 10 μM): 5%
inhibition at 100 µM ([6]; 100 μM): 58%
inhibition at 500 µM ([6]; 500 μM): 71%
effect on virus multiplication (visna virus; SCP cells): does not prevent virus multiplication
Morphological changes Day 3 (visna virus; Visna virus infected cells): + (10% cell degeneration)
Morphological changes Day 5 (visna virus; Visna virus infected cells): ++ (25% cell degeneration)
Morphological changes Day 7 (visna virus; Visna virus infected cells): ++++ (100% cell degeneration)
skin condition after two weeks [7]: the skin heals after about two weeks but remains hairless
skin irritation score ([7]; pH 6.5): 2-3 score
Percent inhibition ([8]; 10 μM): 0%
Percent inhibition ([8]; 100 μM): 10%
Percent inhibition ([8]; 500 μM): 35%

— patent publication US4771041A, “Method for combating virus infection” (priority 1976, dated 1988)
